Reference: patent US12133486B2, “Methods of propagation of arbuscular mycorrhizal fungi (AMF) and uses thereof” (Terra Microbes, LLC, priority 2021, dated 2024)

Key:
[1] = test system: AMF infections of western wheatgrass (Pascopyron smithii) roots; assay: Field plot study: AM fungal infection of western wheatgrass roots; type: in vivo; details: field plots
Excerpt: (§1) Twelve plots of size 50 cm by 50 cm were established on a homogenous site 2.54 meters (running northeast and southwest) by 4.06 meters (running southeast and northwest). Plant distribution was mostly homogeneous across the entire site, with western wheatgrass dominant. The plots were in four rows with three plots in each row. Within a row plots were 25 cm apart. Rows were 50 cm apart. An experimental unit was one plot. Treatments were replicated three times. Treatments included: controls (no treatment), potassium chloride treatment, potassium phosphate treatment, and potassium phosphite treatment. (See, FIG. 2).
(§2) Treatments: All plots received the same amount of solution. The control plots were treated with distilled water only (6.375 L). The KCl plots treated with distilled water containing the same amount of K as was needed to convert the phosphorous acid (H3PO3) to dipotassium phosphite (K2HPO3). The phosphate plots were treated with sufficient dipotassium phosphate (K2HPO4) to deliver 3 g of P per plot dissolved in the same amount of distilled water as the control plots received and the KCl plots received. The phosphite plots were treated with sufficient dipotassium phosphite (K2HPO3) to deliver 3 g of P per plot dissolved in the same amount of distilled water as the control plots received, the KCl plots received and the phosphate plots received.
The field experiment reported in this example was conducted during June through October. Plots were established during early June and treated on the 15th and 16th day (as in Example 3 above). […] Sample size and depth was as detailed above in Example 3.
Analyses of infections were performed by examining roots of wheatgrass (Pascopyron smithii). This plant was the dominant plant in all of the plots and is known to be commonly infected with AM fungi. (See, Loree M. A. J. and Williams S. E., New Phytologist, 106:735-744, 1987; and Wang B. and Qui Y.-L. 2006, Ibid.). During sampling of soils using the methodology outlined in Example 3, above, root of target plants were removed and separated by plant species, each sample being labeled and preserved in FAA solution until being further processed.
Staining of the roots was achieved according to published procedures (see, Phillips J. M. and Hayman D. S., Trans. Brit. Mycological Soc., 55:158-160, 1970) except that cotton blue lactophenol was substituted with lactic acid glycerol with trypan blue since lactophenol is toxic. The procedure used for staining was as follows: • A) Remove roots from FAA Solutions. Cut into 1 cm lengths. Place in test tube, push roots to the bottom of the test tube. • B) Cover roots with 10% KOH (10 grams of reagent grade KOH in enough distilled water to 100 ml). Let stand overnight, about 10 hours. • C) Simmer at 90° C. for one hour in a water bath (container with water and test tubes with roots over a heat source). • D) Rinse in tap water. • E) Rinse five minutes in 0.1 N HCl (3.65 […] of HCl in 1000 ml total volume with distilled water). • F) Rinse in tap water. • G) Simmer at 90° C. one hour (in water bath) in Trypan blue Lactic Acid Glycerol (distilled water, 100 ml; lactic acid (reagent grade 85 to 88%) 100 ml; glycerin (reagent grade 85% also listed as glycerol), 200 ml; trypan blue, 0.1 grams (60% dye content). • H) Rinse in tap water. • I) Place in clear lactic acid glycerol (same formulation as above except without the Trypan blue) if destaining is necessary. Samples can be simmered at 90° C. (one hour in water bath) or left at room temperature for at least 72 hours or longer. • J) Mount on standard glass slide (2.5 cm by 7.6 cm) in lactic acid glycerol. Cover slip (2.3 cm by 4.8 cm) used.
An estimate of the degree of infection of western wheatgrass was made by making microscopic scans of each slide such that 40 root segments were evaluated. The evaluation was performed using the 20× objective, e.g., 200× total magnification—eyepieces were 10× multiplied by the objective magnification. […]

[2] = test system: AM fungi; assay: Field plot study: AMF spore counts in soil around western wheatgrass roots; type: in vivo; details: field plots
Excerpt: as §1
In this study phosphorus, either as phosphate or phosphite, was added at a rate of 120 kg of P per hectare (ha). Scaled down this equates to 3 grams of phosphorous per plot. One ha is 10,000 m^2. Each plot is 50 cm by 50 cm, or 0.25 m^2. The subsequent calculation then is 120 Kg/10,000 m^2=X/0.25 m^2; X=3.00 grams of P per plot. (See Table 2).
as §2
The field experiment reported in this example was conducted during June through October. Plots were established during early June and treated on the 15th and 16th day (as in Example 3 above). The first soil and root sampling was performed 14 days later (t=14). The second set of samples were taken 47 days later (t=61), and the third set 60 days later (t=121 days). Sample size and depth was as detailed above in Example 3.
AMF spores were evaluated in soil samples from which plant roots including plant roots of western wheatgrass had existed and had been removed. Evaluations were performed on the T=0 and the T=47 samples. These evaluations generally entailed mixing the sample with water, centrifugation, and decanting water. This step was performed to remove light organic matter and other light materials, e.g., leaf fragments. This was followed by mixing the soil with a solution of sodium hexametaphosphate (2%) in 2 M sucrose. Centrifugation results in the spores floating on the sucrose solution or suspended in it. The sucrose solution plus spores is decanted into a separatory funnel. The suspension was allowed to exit the funnel one drop at a time. The spores adhere to the inside of the funnel and once all liquid has exited the funnel the spores are washed into a petri-dish and counted under a dissecting microscope.
The specific protocol for spore extraction was as follows: • A) Weigh 5 g of air dried soil into a 20 ml centrifuge tube. For a complete sample this is replicated four times. • B) Fill each tube with water to ˜1.5 cm of the top. Stir to suspend organic matter and other light debris. Let all tubes stand for 10 minutes. • C) Centrifuge at 2000 rpm (475.2×g) for 10 minutes. Be sure tubes are placed across from each other in the centrifuge and are within 0.1 g of the same weight. • D) Pour off and discard supernatant while stirring surface and rotating tube. • E) If much organic matter and other light material remains, repeat steps B through D. • F) Add sucrose/sodium hexametaphosphate solution (2 molar sucrose containing 2% hexametaphosphate: 684.6 g of sucrose (store grade is adequate) and 20 g of sodium hexametaphosphate in one liter of solution using distilled water) to centrifuge tubes to ˜1.5 cm of top. […]

Question: What does the source list for `[Cl-].[K+]` [KCl, potassium chloride, reference compound]?
Answer: infection level compared to the control and phosphorus treated plants ([1]; third sampling, t = 97 days): small depression in infection levels; AM Infection t = 0 days ([1]; western wheatgrass roots, mean n = 3, first sampling): 31Aa Per forty 1.1 mm root segments; AM Infection t = 47 days ([1]; western wheatgrass roots, mean n = 3, second sampling): 34Aab Per forty 1.1 mm root segments; AM Infection t = 97 days ([1]; western wheatgrass roots, mean n = 3, third sampling): 36BCabc Per forty 1.1 mm root segments; Total Spores t = 47 days ([2]; mean n = 3, P added at 120 kg/ha (KCl: same K), second sampling): 14806Ab Per 100 g soil; Total Spores t = 0 days ([2]; mean n = 3, P added at 120 kg/ha (KCl: same K), t = 0 = first sampling, 14 days after treatment): 6398Aa Per 100 g soil; spore numbers compared with the control ([2]; second sampling, t = 47): significant increase in spore numbers from the control
